In ChEMBL document CHEMBL1201861, “Genomics of Drug Sensitity in Cancer screening data, Wellcome Trust Sanger Institute”:

Assays:
Experiment in all cases: cells
NCI-H23 = format: functional, cell-based, Homo sapiens; conditions: Homo sapiens, NCI-H23;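 also: cell viability assay measuring growth inhibition of NCI-H23 cells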
Description: SANGER: Inhibition of human NCI-H23 cell growth in a cell viability assay.

RH-1 = format: functional, cell-based, Homo sapiens; conditions: Homo sapiens, RH-1;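 also: growth inhibition of human RH-1 cells, read out with a cell viability assay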
Description: SANGER: Inhibition of human RH-1 cell growth in a cell viability assay.

NB5 = format: functional, cell-based, Homo sapiens; conditions: Homo sapiens, NB5;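 also: growth inhibition of NB5 cells, read out as cell viability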
Description: SANGER: Inhibition of human NB5 cell growth in a cell viability assay.

OCUB-M = format: functional, cell-based, Homo sapiens; conditions: Homo sapiens, OCUB-M;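 also: growth inhibition of the cancer cell line, read out through a cell viability assay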
Description: SANGER: Inhibition of human OCUB-M cell growth in a cell viability assay.

TE-10 = format: functional, cell-based, Homo sapiens; conditions: Homo sapiens, TE-10;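 also: growth inhibition of TE-10 cells, measured by a cell viability assay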
Description: SANGER: Inhibition of human TE-10 cell growth in a cell viability assay.

SW684 = format: functional, cell-based, Homo sapiens; conditions: Homo sapiens, SW684;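 also: growth inhibition of human SW684 cells, measured by a cell viability assay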
Description: SANGER: Inhibition of human SW684 cell growth in a cell viability assay.

NOMO-1 = format: functional, cell-based, Homo sapiens; conditions: Homo sapiens, NOMO-1;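 also: growth inhibition of human NOMO-1 cells measured by a cell viability assay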
Description: SANGER: Inhibition of human NOMO-1 cell growth in a cell viability assay.

K562 = format: functional, cell-based, Homo sapiens; conditions: Homo sapiens, K562
Description: SANGER: Inhibition of human K-562 cell growth in a cell viability assay.

HH = format: functional, cell-based, Homo sapiens; conditions: Homo sapiens, HH
Description: SANGER: Inhibition of human HH cell growth in a cell viability assay.

SK-UT-1 = format: functional, cell-based, Homo sapiens; conditions: Homo sapiens, SK-UT-1;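 also: growth inhibition of SK-UT-1 cells, measured by a cell viability assay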
Description: SANGER: Inhibition of human SK-UT-1 cell growth in a cell viability assay.

RPMI-8226 = format: functional, cell-based, Homo sapiens; conditions: Homo sapiens, RPMI-8226
Description: SANGER: Inhibition of human RPMI-8226 cell growth in a cell viability assay.

NCI-N87 = format: functional, cell-based, Homo sapiens; conditions: Homo sapiens, NCI-N87;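 also: growth inhibition of human NCI-N87 cells, read out with a cell viability assay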
Description: SANGER: Inhibition of human NCI-N87 cell growth in a cell viability assay.

KURAMOCHI = format: functional, cell-based, Homo sapiens; conditions: Homo sapiens, KURAMOCHI;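 also: growth inhibition of KURAMOCHI cells, read out with a cell viability assay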
Description: SANGER: Inhibition of human KURAMOCHI cell growth in a cell viability assay.

KNS-42 = format: functional, cell-based, Homo sapiens; conditions: Homo sapiens, KNS-42;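 also: growth inhibition of KNS-42 cells, read out with a cell viability assay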
Description: SANGER: Inhibition of human KNS-42 cell growth in a cell viability assay.

RPMI-8866 = format: functional, cell-based, Homo sapiens; conditions: Homo sapiens, RPMI-8866
Description: SANGER: Inhibition of human RPMI-8866 cell growth in a cell viability assay.

EM-2 = format: functional, cell-based, Homo sapiens; conditions: Homo sapiens, EM-2;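 also: growth inhibition of EM-2 cells, read out with a cell viability assay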
Description: SANGER: Inhibition of human EM-2 cell growth in a cell viability assay.

COLO-829 = format: functional, cell-based, Homo sapiens; conditions: Homo sapiens, COLO-829
Description: SANGER: Inhibition of human COLO-829 cell growth in a cell viability assay.

NCI-H1395 = format: functional, cell-based, Homo sapiens; conditions: Homo sapiens, NCI-H1395;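 also: cell viability assay read-out quantifying reduced proliferation of human NCI-H1395 cells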
Description: SANGER: Inhibition of human NCI-H1395 cell growth in a cell viability assay.

TE-9 = format: functional, cell-based, Homo sapiens; conditions: Homo sapiens, TE-9;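 also: cell growth inhibition, measured with a cell viability readout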
Description: SANGER: Inhibition of human TE-9 cell growth in a cell viability assay.

MV4-11 = format: functional, cell-based, Homo sapiens, MV-4-11; conditions: Homo sapiens, MV4-11;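 also: cell viability readout measuring growth inhibition of human MV-4-11 cells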
Description: SANGER: Inhibition of human MV-4-11 cell growth in a cell viability assay.

LS-123 = format: functional, cell-based, Homo sapiens; conditions: Homo sapiens, LS-123
Description: SANGER: Inhibition of human LS-123 cell growth in a cell viability assay.

DB = format: functional, cell-based, Homo sapiens; conditions: Homo sapiens, DB
Description: SANGER: Inhibition of human DB cell growth in a cell viability assay.

CGTH-W-1 = format: functional, cell-based, Homo sapiens; conditions: Homo sapiens, CGTH-W-1;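 also: growth inhibition of human CGTH-W-1 cells measured by cell viability assay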
Description: SANGER: Inhibition of human CGTH-W-1 cell growth in a cell viability assay.

JVM-2 = format: functional, cell-based, Homo sapiens; conditions: Homo sapiens, JVM-2;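 also: growth inhibition of JVM-2 cells determined by a cell viability assay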
Description: SANGER: Inhibition of human JVM-2 cell growth in a cell viability assay.

COLO-668 = format: functional, cell-based, Homo sapiens; conditions: Homo sapiens, COLO-668
Description: SANGER: Inhibition of human COLO-668 cell growth in a cell viability assay.

J-RT3-T3-5 = format: functional, cell-based, Homo sapiens; conditions: Homo sapiens, J-RT3-T3-5;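 also: cell viability assay measuring growth inhibition of human J-RT3-T3-5 cells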
Description: SANGER: Inhibition of human J-RT3-T3-5 cell growth in a cell viability assay.

AM-38 = format: functional, cell-based, Homo sapiens; conditions: Homo sapiens, AM-38;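 also: growth inhibition of AM-38 cells of human origin, read out by a cell viability assay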
Description: SANGER: Inhibition of human AM-38 cell growth in a cell viability assay.

A101D = format: functional, cell-based, Homo sapiens; conditions: Homo sapiens, A101D;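 also: growth inhibition of the cell line, measured with a viability assay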
Description: SANGER: Inhibition of human A101D cell growth in a cell viability assay.

KE-37 = format: functional, cell-based, Homo sapiens; conditions: Homo sapiens, KE-37;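 also: growth inhibition of KE-37 cells, read out with a cell viability assay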
Description: SANGER: Inhibition of human KE-37 cell growth in a cell viability assay.

C2BBe1 = format: functional, cell-based, Homo sapiens; conditions: Homo sapiens, C2BBe1;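 also: growth inhibition of C2BBe1 cells, read out through a viability assay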
Description: SANGER: Inhibition of human C2BBe1 cell growth in a cell viability assay.

COR-L88 = format: functional, cell-based, Homo sapiens; conditions: Homo sapiens, COR-L88;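 also: growth inhibition of COR-L88 cells, read out with a cell viability assay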
Description: SANGER: Inhibition of human COR-L88 cell growth in a cell viability assay.

NTERA-2-cl-D1 = format: functional, cell-based, Homo sapiens; conditions: Homo sapiens, NTERA-2-cl-D1;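 also: inhibition of cell growth, measured with a cell viability assay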
Description: SANGER: Inhibition of human NTERA-S-cl-D1 cell growth in a cell viability assay.

GI-ME-N = format: functional, cell-based, Homo sapiens; conditions: Homo sapiens, GI-ME-N;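 also: growth inhibition of human GI-ME-N cells, read out with a cell viability assay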
Description: SANGER: Inhibition of human GI-ME-N cell growth in a cell viability assay.

BB49-HNC = format: functional, cell-based, Homo sapiens; conditions: Homo sapiens, BB49-HNC;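 also: cell viability assay read-out, reported as inhibition of BB49-HNC cell growth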
Description: SANGER: Inhibition of human BB49-HNC cell growth in a cell viability assay.

KALS-1 = format: functional, cell-based, Homo sapiens; conditions: Homo sapiens, KALS-1;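 also: growth inhibition of KALS-1 cells, determined with a cell viability assay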
Description: SANGER: Inhibition of human KALS-1 cell growth in a cell viability assay.

SW 954 = format: functional, cell-based, Homo sapiens; conditions: Homo sapiens, SW 954;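 also: growth inhibition of SW954 human cancer cells, read out as cell viability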
Description: SANGER: Inhibition of human SW954 cell growth in a cell viability assay.

K5 = format: functional, cell-based, Homo sapiens; conditions: Homo sapiens, K5
Description: SANGER: Inhibition of human K5 cell growth in a cell viability assay.

NB17 = format: functional, cell-based, Homo sapiens; conditions: Homo sapiens, NB17;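 also: growth inhibition of NB17 cells, read out with a cell viability assay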
Description: SANGER: Inhibition of human NB17 cell growth in a cell viability assay.

TE-12 = format: functional, cell-based, Homo sapiens; conditions: Homo sapiens, TE-12;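 also: growth inhibition of TE-12 cells, read out by a cell viability assay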
Description: SANGER: Inhibition of human TE-12 cell growth in a cell viability assay.

ML-2 = format: functional, cell-based, Homo sapiens; conditions: Homo sapiens, ML-2;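 also: growth inhibition of ML-2 cells, measured with a cell viability readout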
Description: SANGER: Inhibition of human ML-2 cell growth in a cell viability assay.

DOHH-2 = format: functional, cell-based, Homo sapiens; conditions: Homo sapiens, DOHH-2;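 also: growth inhibition of human DOHH-2 cells, read out with a cell viability assay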
Description: SANGER: Inhibition of human DOHH-2 cell growth in a cell viability assay.

COLO-684 = format: functional, cell-based, Homo sapiens; conditions: Homo sapiens, COLO-684
Description: SANGER: Inhibition of human COLO-684 cell growth in a cell viability assay.

D-247MG = format: functional, cell-based, Homo sapiens; conditions: Homo sapiens, D-247MG
Description: SANGER: Inhibition of human D-247MG cell growth in a cell viability assay.

NCI-H1355 = format: functional, cell-based, Homo sapiens; conditions: Homo sapiens, NCI-H1355;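 also: growth inhibition of human NCI-H1355 cells, read out by a cell viability assay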
Description: SANGER: Inhibition of human NCI-H1355 cell growth in a cell viability assay.

SK-MEL-1 = format: functional, cell-based, Homo sapiens; conditions: Homo sapiens, SK-MEL-1;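 also: growth inhibition of human SK-MEL-1 cells, read out by a cell viability assay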
Description: SANGER: Inhibition of human SK-MEL-1 cell growth in a cell viability assay.

ONS-76 = format: functional, cell-based, Homo sapiens; conditions: Homo sapiens, ONS-76;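 also: growth inhibition of human ONS-76 cells, read out with a cell viability assay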
Description: SANGER: Inhibition of human ONS-76 cell growth in a cell viability assay.

ES1 = format: functional, cell-based, Homo sapiens; conditions: Homo sapiens, ES1;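 also: growth inhibition of ES1 cells, read out with a cell viability assay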
Description: SANGER: Inhibition of human ES1 cell growth in a cell viability assay.

Compound `CC1(C)CNc2cc(NC(=O)c3cccnc3NCc3ccncc3)ccc21` [MOTESANIB] has an IC50 (NCI-H23) greater than 2000 nM, an IC50 (RH-1) greater than 2000 nM and an IC50 (NB5) greater than 2000 nM. For the same compound, the IC50 (OCUB-M) was greater than 2000 nM, the IC50 (TE-10) was greater than 2000 nM and the IC50 (SW684) was greater than 2000 nM. For the same compound, the IC50 (NOMO-1) was greater than 2000 nM, the IC50 (K562) was greater than 2000 nM and the IC50 (HH) was greater than 2000 nM. For the same compound, the IC50 (SK-UT-1) was greater than 2000 nM, the IC50 (RPMI-8226) was greater than 2000 nM and the IC50 (NCI-N87) was greater than 2000 nM. The IC50 (KURAMOCHI) was greater than 2000 nM, the IC50 (KNS-42) was greater than 2000 nM and the IC50 (RPMI-8866) was greater than 2000 nM. The IC50 (EM-2) was greater than 2000 nM, the IC50 (COLO-829) was greater than 2000 nM and the IC50 (NCI-H1395) was greater than 2000 nM. The IC50 (TE-9) was greater than 2000 nM, the IC50 (MV4-11) was greater than 2000 nM and the IC50 (LS-123) was greater than 2000 nM. For the same compound, the IC50 (DB) was greater than 2000 nM, the IC50 (CGTH-W-1) was 670 nM and the IC50 (JVM-2) was greater than 2000 nM. For the same compound, the IC50 (COLO-668) was greater than 2000 nM, the IC50 (J-RT3-T3-5) was greater than 2000 nM and the IC50 (AM-38) was greater than 2000 nM. It also gave an IC50 (A101D) greater than 2000 nM, an IC50 (KE-37) greater than 2000 nM and an IC50 (C2BBe1) greater than 2000 nM. The IC50 (COR-L88) was greater than 2000 nM, the IC50 (NTERA-2-cl-D1) was greater than 2000 nM and the IC50 (GI-ME-N) was greater than 2000 nM. For the same compound, the IC50 (BB49-HNC) was greater than 2000 nM, the IC50 (KALS-1) was greater than 2000 nM and the IC50 (SW 954) was greater than 2000 nM. The IC50 (K5) was greater than 2000 nM, the IC50 (NB17) was greater than 2000 nM and the IC50 (TE-12) was greater than 2000 nM. The IC50 (ML-2) was greater than 2000 nM, the IC50 (DOHH-2) was greater than 2000 nM and the IC50 (COLO-684) was greater than 2000 nM. The IC50 (D-247MG) was greater than 2000 nM, the IC50 (NCI-H1355) was greater than 2000 nM and the IC50 (SK-MEL-1) was greater than 2000 nM. The IC50 (ONS-76) was greater than 2000 nM and the IC50 (ES1) was greater than 2000 nM.

In the case of `Cn1cnc2c(F)c(Nc3ccc(Br)cc3Cl)c(C(=O)NOCCO)cc21` [SELUMETINIB], the IC50 (NCI-H23) is reported as greater than 4000 nM, the IC50 (RH-1) is reported as greater than 4000 nM and the IC50 (NB5) is reported as 2570 nM. The IC50 (OCUB-M) was greater than 4000 nM, the IC50 (TE-10) was greater than 4000 nM and the IC50 (SW684) was greater than 4000 nM. For the same compound, the IC50 (NOMO-1) was 32 nM, the IC50 (K562) was greater than 4000 nM and the IC50 (HH) was greater than 4000 nM. For the same compound, the IC50 (RPMI-8226) was 740 nM, the IC50 (NCI-N87) was greater than 4000 nM and the IC50 (KURAMOCHI) was greater than 4000 nM. It also gave an IC50 (KNS-42) greater than 4000 nM, an IC50 (RPMI-8866) greater than 4000 nM and an IC50 (EM-2) of 512 nM. It also gave an IC50 (NCI-H1395) greater than 4000 nM, an IC50 (TE-9) greater than 4000 nM and an IC50 (MV4-11) of 575 nM. For the same compound, the IC50 (LS-123) was 3620 nM, the IC50 (DB) was greater than 4000 nM and the IC50 (CGTH-W-1) was greater than 4000 nM. The IC50 (JVM-2) was greater than 4000 nM, the IC50 (COLO-668) was greater than 4000 nM and the IC50 (J-RT3-T3-5) was greater than 4000 nM. The IC50 (AM-38) was greater than 4000 nM, the IC50 (A101D) was 240 nM and the IC50 (KE-37) was greater than 4000 nM. It also gave an IC50 (C2BBe1) of 273 nM, an IC50 (COR-L88) greater than 4000 nM and an IC50 (NTERA-2-cl-D1) greater than 4000 nM. It also gave an IC50 (GI-ME-N) greater than 4000 nM, an IC50 (BB49-HNC) greater than 4000 nM and an IC50 (SW 954) of 896 nM. For the same compound, the IC50 (NB17) was greater than 4000 nM, the IC50 (TE-12) was greater than 4000 nM and the IC50 (ML-2) was 294 nM. The IC50 (DOHH-2) was greater than 4000 nM, the IC50 (COLO-684) was greater than 4000 nM and the IC50 (D-247MG) was greater than 4000 nM. It also gave an IC50 (NCI-H1355) greater than 4000 nM, an IC50 (SK-MEL-1) greater than 4000 nM and an IC50 (ONS-76) of 245 nM. The IC50 (ES1) was greater than 4000 nM.

Compound `CCN(CC)CCCCNc1ncc2cc(-c3cc(OC)cc(OC)c3)c(NC(=O)NC(C)(C)C)nc2n1` [PD-173074] has an IC50 (NCI-H23) greater than 2000 nM, an IC50 (RH-1) greater than 2000 nM and an IC50 (NB5) greater than 2000 nM. It also gave an IC50 (OCUB-M) greater than 2000 nM, an IC50 (TE-10) greater than 2000 nM and an IC50 (SW684) greater than 2000 nM. For the same compound, the IC50 (NOMO-1) was greater than 2000 nM, the IC50 (K562) was greater than 2000 nM and the IC50 (HH) was greater than 2000 nM. The IC50 (SK-UT-1) was greater than 2000 nM, the IC50 (RPMI-8226) was greater than 2000 nM and the IC50 (NCI-N87) was greater than 2000 nM. For the same compound, the IC50 (KURAMOCHI) was greater than 2000 nM, the IC50 (KNS-42) was greater than 2000 nM and the IC50 (RPMI-8866) was greater than 2000 nM. It also gave an IC50 (EM-2) greater than 2000 nM, an IC50 (COLO-829) greater than 2000 nM and an IC50 (NCI-H1395) greater than 2000 nM. For the same compound, the IC50 (TE-9) was greater than 2000 nM, the IC50 (MV4-11) was greater than 2000 nM and the IC50 (LS-123) was greater than 2000 nM. It also gave an IC50 (DB) greater than 2000 nM, an IC50 (CGTH-W-1) greater than 2000 nM and an IC50 (JVM-2) greater than 2000 nM. It also gave an IC50 (COLO-668) greater than 2000 nM, an IC50 (J-RT3-T3-5) greater than 2000 nM and an IC50 (AM-38) greater than 2000 nM. The IC50 (A101D) was greater than 2000 nM, the IC50 (KE-37) was greater than 2000 nM and the IC50 (C2BBe1) was greater than 2000 nM. It also gave an IC50 (COR-L88) greater than 2000 nM, an IC50 (NTERA-2-cl-D1) greater than 2000 nM and an IC50 (GI-ME-N) greater than 2000 nM. It also gave an IC50 (BB49-HNC) greater than 2000 nM, an IC50 (KALS-1) greater than 2000 nM and an IC50 (SW 954) greater than 2000 nM. It also gave an IC50 (K5) greater than 2000 nM, an IC50 (NB17) greater than 2000 nM and an IC50 (TE-12) greater than 2000 nM. For the same compound, the IC50 (ML-2) was greater than 2000 nM, the IC50 (DOHH-2) was greater than 2000 nM and the IC50 (COLO-684) was greater than 2000 nM. For the same compound, the IC50 (D-247MG) was greater than 2000 nM, the IC50 (NCI-H1355) was greater than 2000 nM and the IC50 (SK-MEL-1) was greater than 2000 nM. It also gave an IC50 (ONS-76) greater than 2000 nM and an IC50 (ES1) greater than 2000 nM.
